Where two headings read alike, the source gives them in different places.
Key:
[1] = test system: influenza strain A/VN/1203/2004 (H5N1); assay: microbe, parasite or virus in culture; format: cell-based, Influenza A virus (H5N1)
[2] = test system: Influenza virus strain A/CA/04/2009 (H1N1); assay: organism not typed; format: cell-based; conditions: MDCK, 72 h, read-out: H1N1 EC50 (@ 50% Via)
[3] = test system: Madin Darby Canine Kidney (MDCK) cells; assay: cells; format: cell-based; conditions: Canis lupus familiaris, MDCK, read-out: IC50 (toxicity)
[4] = Influenza A virus, H5N1, MDCK, 72 h, read-out: H5N1 EC50 (@ 50% Via)
[5] = Influenza A virus, H5N1, MDCK, 72 h, read-out: H5N1 EC50 (Inf Pt)
[6] = read-out: H5N1 EC50 (@ 50% Via)

Cc1ccc(C2NC(=O)NC3=C2COc2ccccc23)cc1C (stereo not drawn) [compound 22105] was tested, and the EC50 [1, 4] was 1800 nM, the EC50 [1, 5] was 1000 nM and the EC50 [1, 6] was 2700 nM. For the same molecule, the EC50 ([1]; read-out: H5N1 EC50 (Inf Pt)) was 1900 nM, the EC50 [2] was 14900 nM and the IC50 [3] was greater than 50000 nM.

Work on CC(=O)Oc1ccc(C2NC(=O)NC3=C2COc2ccccc23)cc1Br (stereo not drawn) [compound 23097] yielded an EC50 [1, 4] of 92.8 nM, an EC50 [1, 5] of 102 nM and an EC50 [2] of 1000 nM. The IC50 [3] was greater than 40000 nM.

In the case of O=C1NC2=C(COc3ccccc32)C(c2ccc(Cl)c(Cl)c2)N1 (stereo not drawn) [compound 22404], the EC50 [1, 4] is reported as 1600 nM, the EC50 [1, 6] is reported as 940 nM and the EC50 [2] is reported as greater than 50000 nM. It also gave an IC50 [3] greater than 50000 nM.

Molecule CCOc1cccc(C2NC(=O)NC3=C2CCc2ccccc23)c1 (stereo not drawn) [compound 22520] has an EC50 [1, 5] of 7100 nM, an EC50 [2] greater than 50000 nM and an IC50 [3] greater than 50000 nM.

Molecule COc1ccc(-c2nc(=O)[nH]c3c2CCc2ccccc2-3)cc1 [compound 22125] has an EC50 [1, 4] of 960 nM, an EC50 [1, 5] of 920 nM and an EC50 [1, 6] of 1620 nM. For the same molecule, the EC50 ([1]; read-out: H5N1 EC50 (Inf Pt)) was 1450 nM, the EC50 [2] was 24000 nM and the IC50 [3] was greater than 50000 nM.

Molecule COc1ccc(C2NC(=O)NC3=C2CCc2ccccc23)cc1F (stereo not drawn) [compound 22522] has an EC50 [1, 4] of 260 nM, an EC50 [1, 5] of 190 nM and an EC50 [2] of 3800 nM. The IC50 [3] was greater than 50000 nM.

With O=C1NC2=C(CCc3ccccc32)C(c2ccc3c(c2)OCO3)N1 (stereo not drawn) [compound 22121] the EC50 [1, 4] was 390 nM, the EC50 [1, 5] was 340 nM and the EC50 ([1]; read-out: H5N1 EC50 (Inf Pt)) was 220 nM. For the same molecule, the EC50 [2] was greater than 50000 nM and the IC50 [3] was 29600 nM.

Work on COc1cc(C2NC(=O)NC3=C2CCc2ccccc23)ccc1F (stereo not drawn) [compound 22517] yielded an EC50 [1, 4] of 9600 nM, an EC50 [1, 5] of 7200 nM and an EC50 [2] greater than 50000 nM. For the same molecule, the IC50 [3] was greater than 50000 nM.

Molecule COc1ccc(C2NC(=O)NC3=C2CN(C(=O)CNC(=O)CO)c2ccccc23)cc1Br (stereo not drawn) [compound 25414] has an EC50 [1, 4] of 277 nM, an EC50 [1, 5] of 275 nM and an EC50 [2] greater than 40000 nM. It also gave an IC50 [3] greater than 40000 nM.

O=C1NC2=C(CCc3ccccc32)C(c2ccc(Cl)cc2Cl)N1 (stereo not drawn) [compound 22406] showed an EC50 [1, 4] greater than 50000 nM, an EC50 [1, 5] greater than 50000 nM and an EC50 [2] greater than 50000 nM. For the same molecule, the IC50 [3] was greater than 50000 nM.

COc1ccc(C2NC(=O)NC3=C2CN(C(=O)c2ccc4c(c2)OCO4)c2ccccc23)cc1Br (stereo not drawn) [compound 23274] was tested, and the EC50 [1, 4] was greater than 40000 nM, the EC50 [1, 5] was greater than 40000 nM and the EC50 [2] was greater than 40000 nM. The IC50 [3] was greater than 40000 nM.

COc1ccc(C2NC(=O)NC3=C2CN(C(=O)c2ccco2)c2ccccc23)cc1Br (stereo not drawn) [compound 23209] was tested, and the EC50 [1, 4] was greater than 40000 nM, the EC50 [1, 5] was greater than 40000 nM and the EC50 [2] was greater than 40000 nM. It also gave an IC50 [3] greater than 40000 nM.

COc1ccc2c(c1)C1=C(CC2)C(c2ccc(C)cc2)NC(=O)N1 (stereo not drawn) [compound 22087] was tested, and the EC50 [1, 4] was greater than 50000 nM, the EC50 [2] was 47000 nM and the IC50 [3] was greater than 50000 nM.

COc1ccc(C2NC(O)NC3=C2CN(C(=O)CO)c2ccccc23)cc1Br (stereo not drawn) [compound 23275] showed an EC50 [1, 4] of 2.7 nM, an EC50 [1, 5] of 2.7 nM and an EC50 [2] of less than 67 nM. The IC50 [3] was greater than 40000 nM.

COc1ccc(C2NC(=O)NC3=C2CN(C(=O)COC(C)=O)c2ccccc23)cc1Br (stereo not drawn) [compound 23206] showed an EC50 [1, 4] of 22 nM, an EC50 [1, 5] of 22 nM and an EC50 [1, 6] of 11.9 nM. The EC50 ([1]; read-out: H5N1 EC50 (Inf Pt)) was 11.2 nM, the EC50 [2] was 25.7 nM and the IC50 [3] was greater than 40000 nM.

CCC(=O)N1CC2=C(NC(=O)NC2c2ccc(OC)c(Br)c2)c2ccccc21 (stereo not drawn) [compound 23205] was tested, and the EC50 [1, 4] was 193 nM, the EC50 [1, 5] was 189 nM and the EC50 [2] was 10100 nM. For the same molecule, the IC50 [3] was greater than 40000 nM.

— patent US20120040966A1, “ANTI-VIRAL COMPOUNDS, TREATMENT, AND ASSAY” (priority 2008, published 2012)
